Assay results reported in patent publication US20250108088A1, “REGENERATIVE PEPTIDES AND METHODS FOR USE THEREOF” (priority 2023, published 2025).

Tests used:
[1] = tested on: interleukin-8 (IL-8) production in human fibroblasts; test: Fibroblast inflammation assay (LPS-induced IL-8, ELISA); format: cell-based; settings: LPS induction
Description: Inflammation in fibroblasts leads to the production of the chemokine interleukin-8 (IL-8), which stimulates fibroblast to myofibroblast transition (MFT) thereby enhancing scar formation. To determine if the peptides of the instant disclosure affect fibroblast response to inflammation and fibroblast IL-8 production, the following assays were performed.
Human fibroblasts were grown as described above. HNDFs were plated in 96 well plates at a concentration of 1×10^4 cells/well and allowed to incubate overnight. The next day cells were dosed with 5 μg/mL of LPS with and without the peptides. The negative control contained only media and vehicle, while the positive control was dosed with lipopolysaccharides (LPS) and dexamethasone (50 μg/ml). After 24 hours, the media was removed to measure IL6 and IL8 cytokine levels using ELISA. A standard curve was plotted in excel. All data were blank subtracted and then fit onto the curve to calculate cytokine concentrations.

[2] = tested on: Normal human dermal fibroblasts (HNDF); test: Myofibroblast transition assay (MFT), aSMA immunofluorescence; format: cell-based; settings: N = 3; for Myofibroblast transition (MFT), aSMA/cell, % change relative to control: TGF-Beta induced HNDF, control of no peptide; for MFT, Representative value from experiments (% change relative to control): most effective significant concentration of 10, 100, 1000 ng/ml
Excerpt: The myofibroblast transition (MFT) assay determines the effect of the peptide on inhibiting the transition of fibroblasts to myofibroblasts. The extracellular matrix produced by myofibroblasts may be produced in excess and may not be remodeled during tissue healing, leaving behind the fibrous connective tissue that forms a scar. Thus, the ability to regulate the degree of MFT may enable control of scarring. To determine if the peptides provided herein affect MFT, the following assay was performed.
Normal human dermal fibroblasts (HNDF) were cultured in high glucose Dulbecco's modified eagle medium (DMEM) supplemented with 10% fetal bovine serum (FBS) and 5 ml of 10,000 units of penicillin/streptomycin. Cells were cultured on 10 cm plates with media changes every 2 days. Cells were passaged in 0.25% Trypsin/EDTA after achieving 80% confluency.
To induce myofibroblast transition (MFT), normal human dermal fibroblasts (HNDFs) were split from 1-10 cm plates to 5-96 well plates. Cells were then allowed to grow the next day. The following day, cells were serum starved (1% FBS in DMEM) for 4 hours prior to adding 20 ng/ml of TGF-Beta to all wells of the plate. 1000 μM of Vactosertib (TEW-7197/EW-7197) was added to serve as a positive control and different concentrations of peptides were added to serve as the test articles. The cells were then exposed to the compounds for 5 more days before fixation.
The cells were fixed in paraformaldehyde (PFA) for 10-15 minutes, then washed 2× in PBS. Cells were blocked in 4% BSA for 30 minutes at 23° C. Cells were stained with the primary alpha-smooth muscle actin (aSMA) antibody (1:100) for 1 hour at 23° C. or left out at 4° C. overnight. Cells were rinsed 2× with BSA and then the secondary antibody mix was added: Alexa 488 (1:500) and DAPI (1:1000) for 30 min at 23° C. or 1 hr at 4° C. The plates were covered during staining, then rinsed 2× in BSA and stored in PBS.
Plates were imaged using the Celigo Imaging Cytometer by Nexcelcom. The ratio of fluorescent expression of alpha-smooth muscle actin (aSMA) and DAPI were quantified to determine the amount of aSMA/cell.
The change (normalized to the control) in MFT for each concentration is shown along with the p value for all experiments relative to the control of no peptide.

HNDF fibroblasts = test: Fibroblast cell proliferation (EDU); format: cell-based, human; settings: N = 3; for Fibroblast proliferation, Representative value from experiments (% change relative to control): most effective significant concentration
Description: Fibroblast proliferation is an important component of tissue regeneration. To determine if the peptides of the disclosure affect fibroblast proliferation, HNDFs were grown as described above, and split from 1-10 cm plates to 4-24 well plates. After allowing the cells to grow overnight, normal media was replaced with starvation media (1% FBS in DMEM). 10 ng/ml of fibroblast growth factor (FGF) served as a positive control, untreated cells (starvation media only) served as a negative control, and different concentrations of the peptides as test articles. The cells were then exposed to the peptides for a day before adding 5-Ethynyl-2′-deoxyuridine (EDU) EDU signal marker for 2-4 hours to assess DNA synthesis and cell proliferation.
The fibroblasts were fixed in PFA for 10-15 minutes, then washed 2× in 4% BSA. 0.1% Triton X-100 in PBS was added for 20 min at 23° C. to permeabilize the cells. The cells were washed 2× in 4% BSA and the following reaction mixture was added: 0.25% of 488 iFlour azide, 4% CuSO, 10% Sodium Ascorbate in PBS. The cells were incubated at 23° C. for 30 minutes. The cells were washed in BSA 1× and in PBS 1×. The cells were also stained for DAPI for 30 minutes at 23° C. The cells were washed 2× in PBS and maintained in PBS.
Plates were imaged using the Celigo Imaging Cytometer by Nexcelcom. The amount of fluorescent expression of EDU and DAPI were quantified to determine the amount of EDU/field (and thus the percentage of fibroblast cells dividing).
Because the concentration required to induce an effect with each peptide was not known, each peptide was tested in 3 concentrations: 10 ng/ml, 100 ng/ml, and 1000 ng/ml as shown in Table 4A and Table 4B.

| Substance | Myofibroblast transition (MFT), aSMA/cell, % change relative to control ([2]; 100 ng/ml peptide) [%] | Myofibroblast transition (MFT), aSMA/cell, % change relative to control ([2]; 1000 ng/ml peptide) [%] | MFT, Representative value from experiments (% change relative to control) [2] | Fibroblast proliferation, Representative value from experiments (% change relative to control) (HNDF fibroblasts) | Myofibroblast transition (MFT), aSMA/cell, % change relative to control ([2]; 10 ng/ml peptide) [%] | further results |
| --- | --- | --- | --- | --- | --- | --- |
| PKPQP [MBb28] | −0.243 | −0.1881 | −0.243 p = (0.006) % | – | – | effect on IL-8 inhibition in fibroblasts relative to the negative control [1]: low but significant effect |
| AATHEFGHSLGLSH [MBm1] | – | – | – | 0.2919 (p = 0.044) % | – | Fibroblast proliferation (% change relative to control) (HNDF fibroblasts; 100 ng/ml peptide): 0.2919% |
| ERDLK [MBb14] | – | – | – | 1.094 p = (0.029) % | – | Fibroblast proliferation (% change relative to control) (HNDF fibroblasts; 10 ng/ml peptide): 1.094% |
| GYRCSKG [MBa7] | – | – | – | 0.4644 p = (0.01) % | – | Fibroblast proliferation (% change relative to control) (HNDF fibroblasts; 10 ng/ml peptide): 0.3483%; Fibroblast proliferation (% change relative to control) (HNDF fibroblasts; 1000 ng/ml peptide): 0.4644% |
| FEDVIAEP [MBa5] | – | – | – | 0.5133 (p = 0.004) % | – | Fibroblast proliferation (% change relative to control) (HNDF fibroblasts; 10 ng/ml peptide): 0.5133% |
| SAYGVSKGLRKRLRKFRNK [MBb51] | – | −0.3773 | −0.5028 p = (0.042) % | 0.4175 p = (0.025) % | −0.5028 | Fibroblast proliferation (% change relative to control) (HNDF fibroblasts; 100 ng/ml peptide): 0.3099%; Fibroblast proliferation (% change relative to control) (HNDF fibroblasts; 1000 ng/ml peptide): 0.4175% |
| IDFEDVIAEP [MBa4] | – | – | – | 0.8384 p = (0.037) % | – | Fibroblast proliferation (% change relative to control) (HNDF fibroblasts; 1000 ng/ml peptide): 0.8384% |
| RVIWA [MBb4.2] | −0.2113 | −0.2416 | −0.2416 p = (0.003) % | – | – | – |
| VLFEDVIAEP [MBBey 37] | – | −0.2873 | −0.2873 p = (0.018) % | – | – | – |
| CDADKKDYCLFGRCQYIVELETFRCRCQKGYYGERCVYLEL [EA-1] | −0.2928 | −0.0906 | −0.2928 p = (0.016) % | – | −0.1401 | – |
| HNGILID [MBBey24] | 0.06835 | 0.2745 | −0.05283 p = (0.005) % | – | −0.05283 | – |
| ASCRC [MBb5] | −0.409 | −0.6162 | −0.6162 p = (0.01) % | – | −0.298 | – |
| RWMAP [MBb74] | – | −0.3048 | −0.3048 p = (0.019) % | – | 0.04975 | – |
| SSSGLGLRKRLRKFRNK [MBb50] | – | – | – | 0.3589 p = (0.025) % | – | Fibroblast proliferation (% change relative to control) (HNDF fibroblasts; 100 ng/ml peptide): 0.3589% |
